Results as given in US7138361B2, “Herbicidal heterocycles” (E. I. du Pont de Nemours and Company, priority 2000, dated 2006).

Columns and labels:
Experiment in all cases: Test C postemergence
Assay type in all cases: in vivo
[1] = tested on: velvetleaf (Abutilon theophrasti)
Summary of the method: (§1)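 Visual 0–100 rating vs controls (0 = no effect, 100 = complete control) at 12–14 d, greenhouse. Compounds in non-phytotoxic solvent + surfactant; pre: sprayed after seeding; post: 1–4-leaf plants, 2–18 cm.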

[2] = tested on: woolly cupgrass (Eriochloa villosa)
Summary of the method: as §1

[3] = tested on: pigweed (Amaranthus retroflexus)
Summary of the method: as §1

corn (Zea mays) = tested on: corn (Zea mays)
Summary of the method: as §1

[4] = tested on: goosegrass (Eleusine indica)
Summary of the method: as §1

[5] = tested on: Surinam grass (Brachiaria decumbens)
Summary of the method: as §1

[6] = tested on: crabgrass (Digitaria sanguinalis)
Summary of the method: as §1

[7] = tested on: cocklebur (Xanthium strumarium)
Summary of the method: as §1

[8] = tested on: yellow nutsedge (Cyperus esculentus)
Summary of the method: as §1

soybean (Glycine max) = tested on: soybean (Glycine max)
Summary of the method: as §1

[9] = tested on: giant foxtail (Setaria faberii)
Summary of the method: as §1

[10] = tested on: johnsongrass (Sorghum halepense)
Summary of the method: as §1

[11] = tested on: bermudagrass (Cynodon dactylon)
Summary of the method: as §1

[12] = tested on: lambsquarters (Chenopodium album)
Summary of the method: as §1

kochia (Kochia scoparia) = tested on: kochia (Kochia scoparia)
Summary of the method: as §1

[13] = Rate 250 g/ha, scale 0 to 100 (0 no effect, 100 complete control)
[14] = Rate 500 g/ha, scale 0 to 100 (0 no effect, 100 complete control)
[15] = Rate 125 g/ha, scale 0 to 100, 0 no effect, 100 complete control

COc1cc(N2CCC(n3ccc(C(C)C)n3)C2=O)ccc1Cl (stereo not drawn) [Compound 120]
Plant response rating, Velvetleaf ([1]; Rate 62 g/ha, scale 0 to 100): 0
Plant response rating, Velvetleaf [1, 13]: 0
Plant response rating, Velvetleaf [1, 14]: 0
Plant response rating, Velvetleaf ([1]; scale 0 to 100): 0
Plant response rating, Cupgrass, Woolly ([2]; Rate 62 g/ha, scale 0 to 100): 0
Plant response rating, Cupgrass, Woolly [2, 13]: 0
Plant response rating, Cupgrass, Woolly [2, 14]: 0
Plant response rating, Pigweed ([3]; Rate 62 g/ha, scale 0 to 100): 0
Plant response rating, Pigweed [3, 13]: 60
Plant response rating, Pigweed [3, 14]: 90
Plant response rating, Corn (corn (Zea mays); Rate 62 g/ha, scale 0 to 100): 30
Plant response rating, Corn (corn (Zea mays); [13]): 30
Plant response rating, Corn (corn (Zea mays); [14]): 50
Plant response rating, Corn (corn (Zea mays); scale 0 to 100): 30
Plant response rating, Goosegrass ([4]; Rate 62 g/ha, scale 0 to 100): 0
Plant response rating, Goosegrass [4, 13]: 0
Plant response rating, Goosegrass [4, 14]: 60
Plant response rating, Surinam grass ([5]; Rate 62 g/ha, scale 0 to 100): 0
Plant response rating, Surinam grass [5, 15]: 0
Plant response rating, Surinam grass [5, 13]: 0
Plant response rating, Surinam grass [5, 14]: 0
Plant response rating, Crabgrass ([6]; Rate 62 g/ha, scale 0 to 100): 0
Plant response rating, Crabgrass [6, 13]: 40
Plant response rating, Crabgrass [6, 14]: 90
Plant response rating, Cocklebur ([7]; Rate 62 g/ha, scale 0 to 100): 0
Plant response rating, Cocklebur [7, 13]: 80
Plant response rating, Cocklebur [7, 14]: 90
Plant response rating, Nutsedge ([8]; Rate 62 g/ha, scale 0 to 100): 0
Plant response rating, Nutsedge [8, 13]: 0
Plant response rating, Nutsedge [8, 14]: 50
Plant response rating, Soybean (soybean (Glycine max); Rate 62 g/ha, scale 0 to 100): 30
Plant response rating, Soybean (soybean (Glycine max); [13]): 60
Plant response rating, Soybean (soybean (Glycine max); [14]): 60
Plant response rating, Foxtail, Giant ([9]; Rate 62 g/ha, scale 0 to 100): 0
Plant response rating, Foxtail, Giant [9, 13]: 0
Plant response rating, Foxtail, Giant [9, 14]: 70
Plant response rating, Johnsongrass ([10]; Rate 62 g/ha, scale 0 to 100): 0
Plant response rating, Johnsongrass [10, 13]: 0
Plant response rating, Johnsongrass [10, 14]: 0
Plant response rating, Johnsongrass ([10]; rate not given, scale 0 to 100): 0
Plant response rating, Bermudagrass ([11]; Rate 62 g/ha, scale 0 to 100): 0
Plant response rating, Bermudagrass [11, 15]: 0
Plant response rating, Bermudagrass [11, 13]: 0
Plant response rating, Bermudagrass [11, 14]: 70
Plant response rating, Lambsquarters ([12]; Rate 62 g/ha, scale 0 to 100): 50
Plant response rating, Lambsquarters [12, 13]: 90
Plant response rating, Lambsquarters [12, 14]: 100
Plant response rating, Kochia (kochia (Kochia scoparia); Rate 62 g/ha, scale 0 to 100): 50
Plant response rating, Kochia (kochia (Kochia scoparia); [13]): 90
Plant response rating, Kochia (kochia (Kochia scoparia); [14]): 90

CCCC(C)c1ccn(C2CCN(c3ccc(Cl)c(OC)c3)C2=O)n1 (stereo not drawn) [Compound 121]
Plant response rating, Velvetleaf ([1]; Rate 62 g/ha, scale 0 to 100): 0
Plant response rating, Velvetleaf [1, 13]: 20
Plant response rating, Velvetleaf [1, 14]: 40
Plant response rating, Velvetleaf ([1]; scale 0 to 100): 0
Plant response rating, Cupgrass, Woolly ([2]; Rate 62 g/ha, scale 0 to 100): 0
Plant response rating, Cupgrass, Woolly [2, 13]: 30
Plant response rating, Cupgrass, Woolly [2, 14]: 60
Plant response rating, Pigweed ([3]; Rate 62 g/ha, scale 0 to 100): 20
Plant response rating, Pigweed [3, 13]: 70
Plant response rating, Pigweed [3, 14]: 90
Plant response rating, Corn (corn (Zea mays); Rate 62 g/ha, scale 0 to 100): 0
Plant response rating, Corn (corn (Zea mays); [13]): 0
Plant response rating, Corn (corn (Zea mays); [14]): 40
Plant response rating, Corn (corn (Zea mays); scale 0 to 100): 0
Plant response rating, Goosegrass ([4]; Rate 62 g/ha, scale 0 to 100): 0
Plant response rating, Goosegrass [4, 13]: 20
Plant response rating, Goosegrass [4, 14]: 50
Plant response rating, Surinam grass ([5]; Rate 62 g/ha, scale 0 to 100): 0
Plant response rating, Surinam grass [5, 15]: 0
Plant response rating, Surinam grass [5, 13]: 0
Plant response rating, Surinam grass [5, 14]: 0
Plant response rating, Crabgrass ([6]; Rate 62 g/ha, scale 0 to 100): 0
Plant response rating, Crabgrass [6, 13]: 40
Plant response rating, Crabgrass [6, 14]: 60
Plant response rating, Cocklebur ([7]; Rate 62 g/ha, scale 0 to 100): 0
Plant response rating, Cocklebur [7, 13]: 20
Plant response rating, Cocklebur [7, 14]: 40
Plant response rating, Nutsedge ([8]; Rate 62 g/ha, scale 0 to 100): 0
Plant response rating, Nutsedge [8, 13]: 0
Plant response rating, Nutsedge [8, 14]: 0
Plant response rating, Soybean (soybean (Glycine max); Rate 62 g/ha, scale 0 to 100): 50
Plant response rating, Soybean (soybean (Glycine max); [13]): 60
Plant response rating, Soybean (soybean (Glycine max); [14]): 70
Plant response rating, Foxtail, Giant ([9]; Rate 62 g/ha, scale 0 to 100): 0
Plant response rating, Foxtail, Giant [9, 13]: 20
Plant response rating, Foxtail, Giant [9, 14]: 60
Plant response rating, Johnsongrass ([10]; Rate 62 g/ha, scale 0 to 100): 0
Plant response rating, Johnsongrass [10, 13]: 0
Plant response rating, Johnsongrass [10, 14]: 0
Plant response rating, Johnsongrass ([10]; rate not given, scale 0 to 100): 0
Plant response rating, Bermudagrass ([11]; Rate 62 g/ha, scale 0 to 100): 0
Plant response rating, Bermudagrass [11, 15]: 0
Plant response rating, Bermudagrass [11, 13]: 0
Plant response rating, Bermudagrass [11, 14]: 0
Plant response rating, Lambsquarters ([12]; Rate 62 g/ha, scale 0 to 100): 90
Plant response rating, Lambsquarters [12, 13]: 100
Plant response rating, Lambsquarters [12, 14]: 100
Plant response rating, Kochia (kochia (Kochia scoparia); Rate 62 g/ha, scale 0 to 100): 70
Plant response rating, Kochia (kochia (Kochia scoparia); [13]): 70
Plant response rating, Kochia (kochia (Kochia scoparia); [14]): 90

Cc1ccc(N2CCC(n3ccc(C(C)(C)C)n3)C2=O)cc1I (stereo not drawn) [Compound 122]
Plant response rating, Velvetleaf ([1]; Rate 62 g/ha, scale 0 to 100): 0
Plant response rating, Velvetleaf [1, 13]: 0
Plant response rating, Velvetleaf [1, 14]: 20
Plant response rating, Velvetleaf ([1]; scale 0 to 100): 0
Plant response rating, Cupgrass, Woolly ([2]; Rate 62 g/ha, scale 0 to 100): 0
Plant response rating, Cupgrass, Woolly [2, 13]: 20
Plant response rating, Cupgrass, Woolly [2, 14]: 20
Plant response rating, Pigweed ([3]; Rate 62 g/ha, scale 0 to 100): 40
Plant response rating, Pigweed [3, 13]: 100
Plant response rating, Pigweed [3, 14]: 100
Plant response rating, Corn (corn (Zea mays); Rate 62 g/ha, scale 0 to 100): 0
Plant response rating, Corn (corn (Zea mays); [13]): 0
Plant response rating, Corn (corn (Zea mays); [14]): 0
Plant response rating, Corn (corn (Zea mays); scale 0 to 100): 0
Plant response rating, Goosegrass ([4]; Rate 62 g/ha, scale 0 to 100): 0
Plant response rating, Goosegrass [4, 13]: 0
Plant response rating, Goosegrass [4, 14]: 0
Plant response rating, Surinam grass ([5]; Rate 62 g/ha, scale 0 to 100): 0
Plant response rating, Surinam grass [5, 15]: 0
Plant response rating, Surinam grass [5, 13]: 0
Plant response rating, Surinam grass [5, 14]: 0
Plant response rating, Crabgrass ([6]; Rate 62 g/ha, scale 0 to 100): 0
Plant response rating, Crabgrass [6, 13]: 0
Plant response rating, Crabgrass [6, 14]: 0
Plant response rating, Cocklebur ([7]; Rate 62 g/ha, scale 0 to 100): 20
Plant response rating, Cocklebur [7, 13]: 40
Plant response rating, Cocklebur [7, 14]: 70
Plant response rating, Nutsedge ([8]; Rate 62 g/ha, scale 0 to 100): 0
Plant response rating, Nutsedge [8, 13]: 0
Plant response rating, Nutsedge [8, 14]: 0
Plant response rating, Soybean (soybean (Glycine max); Rate 62 g/ha, scale 0 to 100): 40
Plant response rating, Soybean (soybean (Glycine max); [13]): 50
Plant response rating, Soybean (soybean (Glycine max); [14]): 60
Plant response rating, Foxtail, Giant ([9]; Rate 62 g/ha, scale 0 to 100): 0
Plant response rating, Foxtail, Giant [9, 13]: 0
Plant response rating, Foxtail, Giant [9, 14]: 40
Plant response rating, Johnsongrass ([10]; Rate 62 g/ha, scale 0 to 100): 0
Plant response rating, Johnsongrass [10, 13]: 0
Plant response rating, Johnsongrass [10, 14]: 0
Plant response rating, Johnsongrass ([10]; rate not given, scale 0 to 100): 0
Plant response rating, Bermudagrass ([11]; Rate 62 g/ha, scale 0 to 100): 0
Plant response rating, Bermudagrass [11, 15]: 0
Plant response rating, Bermudagrass [11, 13]: 0
Plant response rating, Bermudagrass [11, 14]: 0
Plant response rating, Lambsquarters ([12]; Rate 62 g/ha, scale 0 to 100): 100
Plant response rating, Lambsquarters [12, 13]: 100
Plant response rating, Lambsquarters [12, 14]: 100
Plant response rating, Kochia (kochia (Kochia scoparia); Rate 62 g/ha, scale 0 to 100): 90
Plant response rating, Kochia (kochia (Kochia scoparia); [13]): 100
Plant response rating, Kochia (kochia (Kochia scoparia); [14]): 100
